# In patent US6448430B1, “Process for the preparation of aryl carboxylate esters” (priority 1999, dated 2002):
# Test: Solubility of NOBS in selected solvents
# Format: physicochemical
# Settings: TFA versus acetic acid; ambient temperature
# Excerpt: The solvent properties of TFA are unique and highly advantageous in the synthesis of phenolsulfonate esters. […] It is notable that the only solvent in which NOBS is more soluble than water is TFA. I have found no better solvent for NOBS than TFA. This is surprising. […] It is likely that hydrogen bonding in TFA facilitates the solvation of sulfonate anions but it is notable, in contrast, that such effects are much weaker in acetic acid. Furthermore, while it is known in the art that dimethyl sulfoxide (DMSO) and dimethylformamide (DMF) are relatively good solvents for benzenesulfonate esters they are much weaker solvents than TFA and because TFA has a much lower boiling point than these dipolar aprotic solvents it is the only good solvent for benzenesulfonate esters which can be readily stripped from product solutions and then purified and recycled with relative ease.
structure (smiles),measurement,value
"CCCCCCCCC(=O)Oc1ccc(S(=O)(=O)[O-])cc1.[Na+] [NOBS, sodium 4-(nonanoyloxy)benzene sulfonate]",Amount of NOBS dissolved by TFA relative to the amount soluble in acetic acid,more than ten times
